What all share (format): cell-based
The target of test [1] is T1, SHP2 protein (Homo sapiens, UniProt Q06124).
T1 sequence (Q06124 1-593): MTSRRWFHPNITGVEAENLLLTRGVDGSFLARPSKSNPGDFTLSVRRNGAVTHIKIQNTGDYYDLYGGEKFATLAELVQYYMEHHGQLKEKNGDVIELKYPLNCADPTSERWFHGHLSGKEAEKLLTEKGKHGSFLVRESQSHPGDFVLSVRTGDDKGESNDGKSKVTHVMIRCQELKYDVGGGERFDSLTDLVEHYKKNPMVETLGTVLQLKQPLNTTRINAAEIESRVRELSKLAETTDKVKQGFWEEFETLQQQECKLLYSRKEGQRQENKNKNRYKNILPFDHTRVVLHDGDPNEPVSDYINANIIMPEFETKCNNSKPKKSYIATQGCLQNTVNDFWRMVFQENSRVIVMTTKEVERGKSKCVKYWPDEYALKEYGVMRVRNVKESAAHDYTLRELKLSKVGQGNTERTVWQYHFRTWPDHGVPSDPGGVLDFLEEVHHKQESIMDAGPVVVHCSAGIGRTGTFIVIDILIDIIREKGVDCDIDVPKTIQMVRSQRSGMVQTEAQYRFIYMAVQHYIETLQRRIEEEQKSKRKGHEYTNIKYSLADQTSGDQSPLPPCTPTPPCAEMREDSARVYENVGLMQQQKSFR
As to the kind of experiment: Degradation activity on SHP2 protein in NCI-H358 cells (Western blot, DC50). Further details: endogenous in cells. The conditions noted are these: read-out: Degradation activity for differenct cell lines NCI-H358 (DC50). The procedure, abridged: (§1)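 Cells were treated 24 h at 37 °C with compound (0.1–100 nM final, 0.1% DMSO). SHP2 was measured by Western blot with GAPDH as loading control, densitometry normalized to DMSO (100%). DC50, the concentration giving 50% degradation, came from a dose-response fit.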

The target of test [2] is T1, SHP2 protein. The test is described as follows: Degradation activity on SHP2 protein in MV-411 cells (Western blot, DC50). Further details: endogenous in cells. The note with it: MV411 cells, 24 hours, read-out: Degradation activity for differenct cell lines MV411 (DC50). In outline: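 MV-411 cells (1×10^6 cells/well, IMDM + 10% FBS) were treated 24 h with compound at 0.1-100 nM final, 0.1% DMSO, duplicates. SHP2 measured by Western blot against GAPDH, band density normalised to DMSO control; DC50 from dose-response fit.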

Test [3] concerns the target T1, SHP2 protein. The test is described as follows: Degradation activity on SHP2 protein in MIA Paca-2 cells (Western blot, DC50). The note with it: read-out: Degradation activity for differenct cell lines MIA Paca-2 (DC50). Further details: endogenous in cells; host or cells: MIA Paca-2 cells. In outline:
as §1

SMILES strings stand for the structures.

What is called DC50 is the concentration giving 50% degradation. Take `Cc1ncsc1-c1ccc([C@H](C)NC(=O)[C@@H]2C[C@@H](O)CN2C(=O)[C@@H](NC(=O)CCCCCN2CCC3(C2)CN(CCC(=O)Nc2cccc(Sc4cnc(N5CCC(C)(N)CC5)cn4)c2)C3)C(C)(C)C)cc1` [Compound 46]: the DC50 in test [1] was over 1000 nM; in test [2] it was under 100 nM.
On to `Cc1ncsc1-c1ccc([C@H](C)NC(=O)[C@@H]2C[C@@H](O)CN2C(=O)[C@@H](NC(=O)c2cnc(N3CCC4(CN(CCC(=O)Nc5cccc(Sc6cnc(N7CCC(C)(N)CC7)cn6)c5)C4)C3)nc2)C(C)(C)C)cc1` [Compound 64], for which the values for the DC50 in test [1], in test [2] and in test [3] were 100 to 1000 nM, under 100 nM and 100 to 1000 nM, respectively.
On to `Cc1ncsc1-c1ccc([C@H](C)NC(=O)[C@@H]2C[C@@H](O)CN2C(=O)[C@@H](NC(=O)c2cnc(N3CC(OCCCCCCCCC(=O)Nc4ccc(Sc5cnc(N6CCC(C)(N)CC6)cn5)cc4)C3)nc2)C(C)(C)C)cc1` [Compound 75], for which the DC50 in test [1], in test [2] and in test [3] was under 100 nM each time.
Regarding `Cc1ncsc1-c1ccc([C@H](C)NC(=O)[C@@H]2C[C@@H](O)CN2C(=O)[C@@H](NC(=O)c2cnc(N3CCC(OCCCCCCCC(=O)Nc4cccc(Sc5cnc(N6CCC(C)(N)CC6)cn5)c4)CC3)nc2)C(C)(C)C)cc1` [Compound 78], the DC50 in test [1], in test [2] and in test [3] was under 100 nM each time.
In the case of `CC1(N)CCN(c2cnc(Sc3cccc(NC(=O)CCCCCCCOC4CCN(c5ncc(C(=O)NCc6ccc7c(c6)CN(C6CCC(=O)NC6=O)C7=O)cn5)CC4)c3)cn2)CC1` (centres unmarked) [Compound 79], the values for the DC50 in test [1], in test [2] and in test [3] were under 100 nM, under 100 nM and 100 to 1000 nM, respectively.
On to `Cc1ncsc1-c1ccc([C@H](C)NC(=O)[C@@H]2C[C@@H](O)CN2C(=O)[C@@H](NC(=O)c2cnc(N3CC(OCCCCCCC(=O)Nc4cccc(Sc5cnc(N6CCC(C)(N)CC6)cn5)c4)C3)nc2)C(C)(C)C)cc1` [Compound 86], for which the DC50 in test [1], in test [2] and in test [3] was under 100 nM in each case.
For the compound `CC1(N)CCN(c2cnc(Sc3cccc(NC(=O)c4ccc(N5CCC(N6CC=C(c7cnc(C(=O)NCc8ccc9c(c8)CN(C8CCC(=O)NC8=O)C9=O)cc7Cl)CC6)CC5)cc4)c3)cn2)CC1` (centres unmarked) [Compound 399], the DC50 in test [1] and in test [3] was under 100 nM each time.
With `CC1(N)CCN(c2cnc(Sc3cccc(NC(=O)c4ccc(N5CCC(N6CC=C(c7cnc(C(=O)NCc8ccc9c(c8)CN(C8CCC(=O)NC8=O)C9=O)c(Cl)c7)CC6)CC5)cc4)c3)cn2)CC1` (centres unmarked) [Compound 400], the DC50 in test [1] and in test [3] was under 100 nM in each case.
Regarding `CC1(N)CCN(c2cnc(Sc3cccc(NC(=O)c4ccc(N5CCC(N6CC=C(c7ccc(C(=O)NCc8ccc9c(c8)CN(C8CCC(=O)NC8=O)C9=O)nc7)CC6)CC5)cc4F)c3)cn2)CC1` (centres unmarked) [Compound 405], the DC50 in test [1] is under 100 nM; in test [3], 100 to 1000 nM.
As to `CC1(N)CCN(c2cnc(Sc3cccc(NC(=O)c4ccc(-c5ccc(N6CCC7(CC6)CC7C(=O)NCc6ccc7c(c6)CN(C6CCC(=O)NC6=O)C7=O)cc5)cc4)c3)cn2)CC1` (centres unmarked) [Compound 406], the DC50 in test [1] and in test [3] was over 1000 nM in each case.
On to `CC1(N)CCN(c2cnc(Sc3cccc(NC(=O)c4ccc(N5CCC(N6CC=C(c7ccc(C(=O)NCc8ccc9c(c8)CN(C8CCC(=O)NC8=O)C9=O)nc7)CC6)C(F)C5)nc4)c3)cn2)CC1` (centres unmarked) [Compound 409], for which the DC50 in test [1] and in test [3] was under 100 nM in each case.
As to `CC1(N)CCN(c2cnc(Sc3cccc(NC(=O)c4ccc(N5CCC(N6CC=C(c7ccc(C(=O)NCc8ccc9c(c8)CN(C8CCC(=O)NC8=O)C9=O)nc7)C6)CC5)c(F)c4)c3)cn2)CC1` (centres unmarked) [Compound 410], the DC50 in test [1] and in test [3] was under 100 nM in each case.
Consider `CC1(N)CCN(c2cnc(Sc3cccc(NC(=O)c4ccc(N5CCC(N6CC=C(c7cnc(C(=O)NCc8ccc9c(c8)CN(C8CCC(=O)NC8=O)C9=O)cc7Cl)CC6)CC5)c(F)c4)c3)cn2)CC1` (centres unmarked) [Compound 418], for which the DC50 in test [1] and in test [3] was under 100 nM in each case.
Turning to `CC1(N)CCN(c2cnc(Sc3cccc(NC(=O)c4ccc(N5CCC(N6CC=C(c7cnc(C(=O)NCc8ccc9c(c8)CN(C8CCC(=O)NC8=O)C9=O)cc7Cl)CC6)CC5)nc4)c3)cn2)CC1` (centres unmarked) [Compound 419], the DC50 in test [1] and in test [3] was under 100 nM in each case.
Consider `Cc1cc(C(=O)Nc2cccc(Sc3cnc(N4CCC(C)(N)CC4)cn3)c2)ccc1N1CCC(N2CC=C(c3cnc(C(=O)NCc4ccc5c(c4)CN(C4CCC(=O)NC4=O)C5=O)c(F)c3)CC2)CC1` (centres unmarked) [Compound 439], for which the DC50 in test [1] and in test [3] was under 100 nM each time.
On to `CC1(N)CCN(c2cnc(Sc3cccc(NC(=O)c4ccc(N5CCC(N6CC=C(c7ccc(C(=O)NCc8ccc9c(c8)CN(C8CCC(=O)NC8=O)C9=O)nc7Cl)CC6)CC5)c(F)c4)c3)cn2)CC1` (centres unmarked) [Compound 442], for which the DC50 in test [1] and in test [3] was 100 to 1000 nM in each case.
As to `Cc1cc(N2CCC(N3CC=C(c4cnc(C(=O)NCc5ccc6c(c5)CN(C5CCC(=O)NC5=O)C6=O)c(Cl)c4)CC3)CC2)ccc1C(=O)Nc1cccc(Sc2cnc(N3CCC(C)(N)CC3)cn2)c1` (centres unmarked) [Compound 443], the DC50 was under 100 nM in test [1] and 100 to 1000 nM in test [3].
As for `CC1(N)CCN(c2cnc(Sc3cccc(NC(=O)c4ccc(N5CCC(N6CC=C(c7ccc(C(=O)NCc8ccc9c(c8)CN(C8CCC(=O)NC8=O)C9=O)cc7)CC6)CC5)c(F)c4)c3)cn2)CC1` (centres unmarked) [Compound 445], the figures for the DC50 in test [1] and in test [3] were under 100 nM and 100 to 1000 nM, respectively.
With `CC1(N)CCN(c2cnc(Sc3cccc(NC(=O)c4ccc(N5CCC(N6CC=C(c7ccc(C(=O)NCc8ccc9c(c8)CN(C8CCC(=O)NC8=O)C9=O)cc7)CC6)CC5)cc4)c3)cn2)CC1` (centres unmarked) [Compound 446], the half-maximal degradation concentration (DC50) in test [1] and in test [3] was under 100 nM in each case.
Turning to `CC1(N)CCN(c2cnc(Sc3cccc(NC(=O)c4ccc(N5CCC(N6CCN(c7ccc(C(=O)NCc8ccc9c(c8)CN(C8CCC(=O)NC8=O)C9=O)nc7)CC6)CC5)cn4)c3)cn2)CC1` (centres unmarked) [Compound 448], the DC50 in test [1] and in test [3] was under 100 nM throughout.
With `CC1(N)CCN(c2cnc(Sc3cccc(NC(=O)c4ncc(N5CCC(N6CCN(c7ccc(C(=O)NCc8ccc9c(c8)CN(C8CCC(=O)NC8=O)C9=O)nc7)CC6)CC5)cn4)c3)cn2)CC1` (centres unmarked) [Compound 451], the DC50 in test [1] and in test [3] was under 100 nM throughout.
Turning to `Cc1cc(N2CCC(N3CC=C(c4cnc(C(=O)NCc5ccc6c(c5)CN(C5CCC(=O)NC5=O)C6=O)cc4C)CC3)CC2)ccc1C(=O)Nc1cccc(Sc2cnc(N3CCC(C)(N)CC3)cn2)c1` (centres unmarked) [Compound 457], the DC50 in test [1] and in test [3] was under 100 nM each time.
As for `Cc1cc(C(=O)NCc2ccc3c(c2)CN(C2CCC(=O)NC2=O)C3=O)ncc1C1=CCN(C2CCN(c3ccc(C(=O)Nc4cccc(Sc5cnc(N6CCC7(CC6)CO[C@@H](C)[C@H]7N)cn5)c4)cc3F)CC2)CC1` (some centres unmarked) [Compound 465], the DC50 in test [1] and in test [3] was under 100 nM in each case.
In the case of `CC1(N)CCN(c2cnc(Sc3cccc(NC(=O)c4ccc(N5CCC(N6CC=C(c7ccc(C(=O)NCc8ccc9c(c8)CN(C8CCC(=O)NC8=O)C9=O)nc7F)CC6)CC5)c(F)c4)c3)cn2)CC1` (centres unmarked) [Compound 467], the DC50 was 100 to 1000 nM in test [1] and under 100 nM in test [3].

For the origin of these results see patent publication US20240383908A1, “SYNTHESIS AND APPLICATION OF PHOSPHATASE DEGRADER” (HINOVA PHARMACEUTICALS INC., priority 2021, published 2024).
